This is an account of results in patent US20050272035A1, “Functional screening method” (priority 2002, published 2005).

Experiment [1] relates to ATF1 (activating transcription factor 1). As to the kind of experiment: Nuclear trafficking (N/C ratio) of ATF1-EGFP indicator in transiently transfected HeLa cells. Type of experiment: cell-based. The following applies: 1 μM, 5 minutes, scatterplot FIG. 9.
Protocol: Expression vectors encoding cDNA-EGFP indicators were transiently transfected into HeLa cells growing in wells of 96 well microtitre plates by chemically mediated transfection (Fugene, Roche) and cells incubated under standard growth conditions for 24 hours to permit synthesis of indicator fusion proteins. Cells were subsequently stained with DRAQ 5, a cell permeable nuclear DNA binding dye (Biostatus), to fluorescently mark cell nuclei, and all wells imaged with dual laser excitation (EGFP 488 nm, DRAQ 5 633 nm) using an IN Cell Analyzer (Amersham Biosciences). Data for green (EGFP) and red (DRAQ 5) fluorescence were collected for all cells (FIG. 6) and used to determine thresholds for data separation of transfected cells (EGFP fluorescence above threshold) from non-transfected cells (EGFP fluorescence below threshold).
Indicator proteins derived from a range of cDNAs as described for Example 1 were transfected into HeLa cells and allowed to express for 24 hours. Following expression, cells were transferred into serum-free media for 2 hours to allow effects of stimuli from serum factors such as cortisol to decay. […] This algorithm allows the spatial distribution of cDNA-EGFP fusion proteins to be quantitated in expressing cells: a low N/C ratio indicating a cytoplasmic location for the indicator protein, a high N/C ration indicating a nuclear location. […]
Experiment [2] relates to Cyt-C (EGFP-Cytochrome C). As to the kind of experiment: Granularity and Membrane Spot image analysis of EGFP-Cytochrome C indicator in HeLa cells. Format: cell-based. The settings on record: staurosporine treated HeLa cells, FIG. 10 inset. An excerpt: A further group of indicator proteins were transfected into HeLa cells and cells imaged before and after exposure to staurosporine as described in Example 2. […] These algorithms return results which quantitate fluorescence in degrees of granularity (i.e. low value indicates uniform distribution, high value indicates punctate distribution) and in terms of membrane localisation.

Consider `CN[C@@H]1C[C@H]2O[C@@](C)([C@@H]1OC)n1c3ccccc3c3c4c(c5c6ccccc6n2c5c31)C(=O)NC4` [staurosporine], for which the “response of ATF1 indicator N/C ratio to modulator” value in experiment [1] was “specific and differential responses”. The “ratio of outputs of Granularity and Membrane Spot algorithms for Cyt-C indicator” value in experiment [2] was “highest differential return from the two algorithms”.
